# Results published in US20100311107A1, “Ultra-High Throughput Screening of Natural Products” (priority 2004, published 2010).
# Where two headings read alike, the source gives them in different places.
# Assays:
# Format in all cases: cell-based, Escherichia coli
# E. coli MG1655 = test system: E. coli MG1655; set-up: unit not given here
# Experimental: (§1) The screening strain, DR1234, was established after all desired drug-resistant genes listed in Table 5 had been delivered into the parent E. coli strain, MG1655, by methods described above. Its level of drug resistance was analyzed by the standard minimum inhibitory concentration (MIC) assay in MHB liquid medium (Chantot, et al., 1986, “Antibacterial activity of roxithromycin: a laboratory evaluation,” J. Antibiot, 39(5):660-8) and the result was summarized in Table 7.
# (§2) The level of drug resistance of CM166 was estimated by MIC assay carried out in MHB liquid medium and the results were summarized in Table 9. CM166 is resistant to antibacterial agents whose resistant genes have been incorporated into the strain, but not to other antibacterial drugs whose resistant genes are not incorporated.
# (§3) The level of drug-resistance of screening strain DR1212 was analyzed by standard MIC assay in MHB liquid medium and the result was summarized in Table 11. Similar to screening strains, DR1234 and CM166, DR1212 is also resistant to drugs whose resistant genes have been introduced.
# (§4) The level of drug resistance of these screening strains (both intermediates and finals) was evaluated by standard MIC assay in MHB liquid medium and the result of Strain CM242 is summarized in Table 12.
# (§5) The level of drug resistance of screening strains CM400 and CM435 was evaluated by standard MIC assay in MHB liquid medium and the results are summarized in Table 13. According to the MIC results, CM435 is hypersensitive to Bleomycin, Daunorucibin, Coumermycin A1 and Erythromycin. Screening strain CM435 and others, which are hypersensitive to certain types of antimicrobial agents, are advantageous in detecting bioactive compounds with low concentration in the screening system.
# [1] = test system: E. coli screening strain DR1234; set-up: unit not given here
# Experimental: as §1
# [2] = test system: E. coli screening strain CM166; set-up: unit not given here; details: Table 9, MHB medium
# Source text: as §2
# [3] = test system: E. coli screening strain DR1212; set-up: unit not given here
# Experimental: as §3
# [4] = test system: E. coli screening strain CM242; set-up: unit not given here; details: second Table 12, MHB medium
# Experimental: as §4
# [5] = test system: E. coli screening strain CM400; set-up: unit not given here; details: Table 13, MHB medium
# Experimental: as §5
# [6] = test system: E. coli screening strain CM435; set-up: Minimal inhibitory concentrations (MIC90) CM435: unit not given here; details: for Minimal inhibitory concentrations (MIC90) CM435: Table 13, MHB medium; for sensitivity of CM435 according to the MIC results: MHB liquid medium
Compound,"Minimal inhibitory concentrations (MIC90) MG1655 (E. coli MG1655; Table 7, MHB medium)","Minimal inhibitory concentrations (MIC90) MG1655 (E. coli MG1655; Table 9, MHB medium)","Minimal inhibitory concentrations (MIC90) MG1655 (E. coli MG1655; Table 11, MHB medium)","Minimal inhibitory concentrations (MIC90) MG1655 (E. coli MG1655; Table 13, MHB medium)","Minimal inhibitory concentrations (MIC90) MG1655 (E. coli MG1655; second Table 12, MHB medium)","Minimal inhibitory concentrations (MIC90) DR1234 ([1]; Table 7, MHB medium)",Minimal inhibitory concentrations (MIC90) CM166 [2],"Minimal inhibitory concentrations (MIC90) DR1212 ([3]; Table 11, MHB medium)",Minimal inhibitory concentrations (MIC90) CM242 [4],Minimal inhibitory concentrations (MIC90) CM400 [5],Minimal inhibitory concentrations (MIC90) CM435 [6],sensitivity of CM435 according to the MIC results [6],Minimal inhibitory concentrations (MIC90) DR1234 [1],Minimal inhibitory concentrations (MIC90) DR1212 [3]
CC1(C)S[C@@H]2[C@H](NC(=O)[C@H](N)c3ccccc3)C(=O)N2[C@H]1C(=O)O [Ampicillin],1.6-3.2,1.6-3.2,1.6-3.2,8,1.6-3.2,>400,>400,>400,>400,>64,>64,–,–,–
CN[C@@H]1[C@@H](O[C@H]2O[C@H](CO)[C@@H](N)[C@H](O)[C@H]2O)OC2C[C@@H](N)[C@@H](O[C@H]3[C@H](O)[C@@H](O)[C@H](N)C[C@@H]3N)OC2[C@@H]1O (stereo partly shown) [Apramycin],3.2-6.3,3.2-6.3,3.2-6.3,4,3.2-6.3,400,200,1.6,400,64,>64,–,–,–
C[C@H]1[C@H](NC(=O)/C(=N\OC(C)(C)C(=O)O)c2csc(N)n2)C(=O)N1S(=O)(=O)O [Aztreonam],0.1,0.1,0.1,0.06,0.1,≦0.05,≦0.05,≦0.05,0.3,<0.06,–,–,–,–
O=C(N[C@H](CO)[C@H](O)c1ccc([N+](=O)[O-])cc1)C(Cl)Cl [Chloramphenicol],3.2,3.2,3.2,8,3.2,100,100,400,100,>64,>64,–,–,–
CO[C@H]1[C@H](OC(=O)c2ccc(C)[nH]2)[C@H](O)[C@@H](Oc2ccc3c(O)c(NC(=O)c4c[nH]c(C(=O)Nc5c(O)c6ccc(O[C@H]7OC(C)(C)[C@@H](OC)[C@H](OC(=O)c8ccc(C)[nH]8)[C@@H]7O)c(C)c6oc5=O)c4C)c(=O)oc3c2C)OC1(C)C [Coumermycin A1],12.5,12.5,12.5,>64,12.5,3.2,6.3,3.2,6.3,64,4,hypersensitive,–,–
NC[C@@H]1CC[C@@H](N)[C@@H](O[C@H]2[C@H](O)[C@@H](O[C@H]3O[C@H](CO)[C@@H](O)[C@H](N)[C@H]3O)[C@H](N)C[C@@H]2N)O1 [Dibekacin],–,–,–,–,3.2,–,–,–,400,–,–,–,–,–
CC[C@H]1OC(=O)[C@H](C)[C@@H](O[C@H]2C[C@@](C)(OC)[C@@H](O)[C@H](C)O2)[C@H](C)[C@@H](O[C@@H]2O[C@H](C)C[C@H](N(C)C)[C@H]2O)[C@](C)(O)C[C@@H](C)C(=O)[C@H](C)[C@@H](O)[C@]1(C)O [Erythromycin],25,25,25,>64,25,100,100,50,25,64,4,hypersensitive,–,–
NC[C@H]1O[C@H](O[C@H]2[C@H](O)[C@@H](O[C@H]3O[C@H](CO)[C@@H](O)[C@H](N)[C@H]3O)[C@H](N)C[C@@H]2N)[C@H](O)[C@@H](O)[C@@H]1O [Kanamycin],–,–,–,–,–,–,>400,–,>400,>64,>64,–,>400,400
CCN[C@@H]1C[C@H](N)[C@@H](O[C@H]2OC(CN)=CC[C@H]2N)[C@H](O)[C@H]1O[C@H]1OC[C@](C)(O)[C@H](NC)[C@H]1O [Netilmycin],1.6,1.6,1.6,0.5,1.6,200,400,400,200,>64,64,–,–,–
CO[C@H]1/C=C/O[C@@]2(C)Oc3c(C)c(O)c4c(O)c(cc(O)c4c3C2=O)NC(=O)/C(C)=C\C=C\[C@H](C)[C@H](O)[C@@H](C)[C@@H](O)[C@@H](C)[C@H](OC(C)=O)[C@@H]1C [Rifamycin],–,–,–,16,–,–,–,–,–,>64,16,–,–,–
[H]/N=C(/N)N[C@H]1[C@H](O)[C@@H](O)[C@H](O[C@@H]2O[C@@H](C)[C@](O)(C=O)[C@H]2O[C@@H]2O[C@@H](CO)[C@H](O)[C@@H](O)[C@@H]2NC)[C@@H](N/C(N)=N\[H])[C@@H]1O [Streptomycin],3.2,3.2,3.2,4,3.2,>400,>400,>400,>400,>64,>64,–,–,–
CN(C)[C@@H]1C(O)=C(C(N)=O)C(=O)[C@@]2(O)C(O)=C3C(=O)c4c(O)cccc4[C@@](C)(O)[C@H]3C[C@@H]12 [Tetracycline],0.4-3.2,0.4-3.2,0.4-3.2,2,0.4-3.2,–,100,–,>400,>64,64,–,100,100
NC[C@H]1O[C@H](O[C@H]2[C@H](O)[C@@H](O[C@H]3O[C@H](CO)[C@@H](O)[C@H](N)[C@H]3O)[C@H](N)C[C@@H]2N)[C@H](N)C[C@@H]1O [Tobramycin],0.4,0.4,0.4,–,0.4,50,>400,25,100,–,–,–,–,–
Actinomycin C,50,50,50,256,50,100,50,25.0,200,>256,>256,–,–,–
